{"source": "patent US10034886B2", "about": "“GLP-1 receptor modulators” (Celgene International II SÀRL, priority 2014, dated 2018)", "target": "T1, GLP-1R (Homo sapiens, UniProt P43220)", "T1 construct": "host or cells: GLP-1R CRE-bla CHO-K1 cells", "T1 sequence (P43220 24-463)": "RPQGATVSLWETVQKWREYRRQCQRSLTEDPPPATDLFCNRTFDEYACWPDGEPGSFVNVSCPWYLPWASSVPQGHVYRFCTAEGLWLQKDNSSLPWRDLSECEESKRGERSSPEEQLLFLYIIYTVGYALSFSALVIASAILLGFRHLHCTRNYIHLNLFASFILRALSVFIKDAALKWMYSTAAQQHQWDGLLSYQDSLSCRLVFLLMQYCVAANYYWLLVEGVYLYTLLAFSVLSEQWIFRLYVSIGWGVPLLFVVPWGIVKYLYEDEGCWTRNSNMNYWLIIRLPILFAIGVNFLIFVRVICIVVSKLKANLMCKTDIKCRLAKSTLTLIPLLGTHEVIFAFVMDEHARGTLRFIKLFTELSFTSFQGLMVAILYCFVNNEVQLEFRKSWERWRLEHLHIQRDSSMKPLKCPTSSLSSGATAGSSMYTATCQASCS", "T1 sequence (P01275 100-127 partner limits assumed)": "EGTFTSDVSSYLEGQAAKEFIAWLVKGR", "experiment": "EC20 GLP-1(9-36) PAM cAMP assay: dose response of compound in the presence of fixed concentration of GLP-1(9-36)", "format": "cell-based", "conditions": "GLP-1R CRE-bla CHO-K1 cells, read-out: EC20 GLP-1(9-36) PAM EC50", "in_short": "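Positive allosteric modulation read as cAMP accumulation: compound titrations (12 points) combined with an EC20 level of GLP-1(9-36) on CHO-K1 GLP-1R CRE-bla cells, IBMX present, 30 min, 37 °C, pH 7.4 buffer. Luminescence converted to cAMP via standards; non-linear fit gave EC50 and Emax.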", "key": {"[1]": {"conditions": "dose response of compound in presence of fixed concentration of GLP-1(9-36)"}, "[2]": {"conditions": "compound dose response with fixed concentration of GLP-1(9-36)"}}, "note": "Like-named read-outs stand apart in the source and are kept apart here."}
{"compound": "CCCCCCCOc1ccc(-c2cnc(-c3ccc(CC(NC(=O)c4ccc(C(C)(C)C)s4)C(=O)N4CCC(C(=O)O)C4)cc3)nc2)cc1", "note": "(centres unmarked) [Compound 625]", "values": [{"measurement": "EC50", "setting": "[1]", "value": "< 800", "unit": "nM"}]}
{"compound": "CC(=O)c1ccc(-c2ccc(-c3cnc(-c4ccc(C[C@H](NC(=O)c5ccc(C(C)(C)C)s5)C(=O)N[C@H](C)C(=O)O)cc4)nc3)cc2)cc1", "note": "[Compound 1292]", "values": [{"measurement": "EC50", "setting": "[2]", "value": "< 800", "unit": "nM"}]}
{"compound": "CC(C)(C)c1ccc(C(=O)N[C@@H](Cc2ccc(-c3ncc(-c4ccc([C@H]5CC[C@@H](C(C)(C)C)CC5)cc4)cn3)cc2)C(=O)N2CC(C(=O)O)C2)s1", "note": "[Compound 1182]", "values": [{"measurement": "EC50", "setting": "[1]", "value": "< 800", "unit": "nM"}]}
{"compound": "CCCCCCCOc1ccc(-c2cnc(-c3ccc(C[C@H](NC(=O)c4ccc(C(C)C)cc4)C(=O)N4CCC[C@H]4C(=O)O)cc3)nc2)cc1", "note": "[Compound 1074]", "values": [{"measurement": "EC50", "setting": "[1]", "value": "800 to 2500", "unit": "nM"}]}
{"compound": "CCCCCCc1noc(-c2cnc(-c3ccc(C[C@H](NC(=O)c4ccc(C(C)(C)C)cc4)C(=O)NCCC(=O)O)cc3)nc2)n1", "note": "[Compound 692]", "values": [{"measurement": "EC50", "setting": "[1]", "value": "5000 to 10000", "unit": "nM"}]}
{"compound": "CCC[C@H]1CC[C@H](C2CCN(c3cnc(-c4ccc(C[C@H](NC(=O)c5ccc(C(C)(C)C)s5)C(=O)N5CC(OC)(C(=O)O)C5)cc4)nc3)CC2)CC1", "note": "[Compound 1452]", "values": [{"measurement": "EC50", "setting": "[2]", "value": "< 800", "unit": "nM"}]}
{"compound": "CCCCCCCOc1ccc(-c2cnc(-c3ccc(C[C@H](NC(=O)c4ccc(C(C)(C)C)cc4)C(=O)NC(C(=O)O)c4nc(C)oc4C)cc3)nc2)cc1", "note": "(some centres unmarked) [Compound 488]", "values": [{"measurement": "EC50", "setting": "[1]", "value": "800 to 2500", "unit": "nM"}]}
{"compound": "CCC[C@H]1CC[C@H](C2CCN(c3cnc(-c4ccc(C[C@H](NC(=O)c5ccc(C(C)(C)C)s5)C(=O)N[C@H](C)CC(=O)O)cc4)nc3)CC2)CC1", "note": "[Compound 1468]", "values": [{"measurement": "EC50", "setting": "[2]", "value": "< 800", "unit": "nM"}]}
{"compound": "CCCCCCCOc1ccc(-c2cnc(-c3ccc(C[C@H](NC(=O)c4ccc(CC)s4)C(=O)N[C@H](C)C(=O)O)cc3)nc2)cc1", "note": "[Compound 839]", "values": [{"measurement": "EC50", "setting": "[1]", "value": "800 to 2500", "unit": "nM"}]}
{"compound": "CCCCCCCOc1ccc(-c2cnc(-c3ccc(C[C@H](NC(=O)c4ccc(C(C)(C)C)s4)C(=O)N[C@@H](CC(=O)O)C(=O)N4CCOCC4)cc3)nc2)cc1", "note": "[Compound 533]", "values": [{"measurement": "EC50", "setting": "[1]", "value": "< 800", "unit": "nM"}]}
{"compound": "CCCCCCCOc1ccc(-c2cnc(-c3ccc(C[C@H](NC(=O)c4ccc(C(C)(C)C)cc4)C(=O)NC(C(=O)O)c4cccnc4)cc3)nc2)cc1", "note": "(some centres unmarked) [Compound 468]", "values": [{"measurement": "EC50", "setting": "[1]", "value": "< 800", "unit": "nM"}]}
{"compound": "CCCCCCCOc1ccc(-c2cnc(-c3ccc(C[C@H](NC(=O)c4ccc(C(C)(C)C)cc4OCC)C(=O)N[C@H](C)C(=O)O)cc3)nc2)cc1", "note": "[Compound 836]", "values": [{"measurement": "EC50", "setting": "[1]", "value": "2500 to 5000", "unit": "nM"}]}
{"compound": "CC(C)CCCCOc1ccc(-c2cnc(-c3ccc(C[C@H](NC(=O)c4ccc(C(C)(C)C)s4)C(=O)N4CC(C(=O)O)C4)cc3)nc2)cc1", "note": "[Compound 795]", "values": [{"measurement": "EC50", "setting": "[1]", "value": "< 800", "unit": "nM"}]}
{"compound": "CCCCCCCOc1ccc(-c2cnc(-c3ccc(C[C@H](NC(=O)c4ccc(C(C)(C)C)s4)C(=O)NCC4CC4)cc3)nc2)cc1", "note": "[Compound 968]", "values": [{"measurement": "EC50", "setting": "[1]", "value": "5000 to 10000", "unit": "nM"}]}
{"compound": "CCC[C@H]1CC[C@H](C2CCN(c3cnc(-c4ccc(C[C@H](NC(=O)c5ccc(C(C)C)cc5)C(=O)N5CC(C(=O)O)C5)cc4)nc3)CC2)CC1", "note": "[Compound 1536]", "values": [{"measurement": "EC50", "setting": "[2]", "value": "< 800", "unit": "nM"}]}
{"compound": "CCc1ccc(C(=O)N[C@@H](Cc2ccc(-c3ncc(-c4ccc([C@H]5CC[C@H](CC)CC5)cc4)cn3)cc2)C(=O)N2CC(C(=O)O)C2)cc1", "note": "[Compound 1168]", "values": [{"measurement": "EC50", "setting": "[1]", "value": "< 800", "unit": "nM"}]}
{"compound": "CCC[C@H]1CC[C@H](C2CCN(c3cnc(-c4ccc(C[C@H](NC(=O)c5ccc(C(C)(C)C)s5)C(=O)N[C@@H](CO)C(=O)O)cc4)nc3)CC2)CC1", "note": "[Compound 1467]", "values": [{"measurement": "EC50", "setting": "[2]", "value": "< 800", "unit": "nM"}]}
{"compound": "CCCCCCCOc1ccc(-c2cnc(-c3ccc(C[C@H](NC(=O)c4ccc(C(C)(C)C)s4)C(=O)N[C@@H](C(=O)O)[C@H](O)c4ccccc4)cc3)nc2)cc1", "note": "[Compound 666, (2R,3R)-2-((S)-2-(5-(tert-butyl)thiophene-2-carboxamido)-3-(4-(5-(4-(heptyloxy)phenyl)-pyrimidin-2-yl)phenyl)propanamido)-3-hydroxy-3-phenylpropanoic acid]", "values": [{"measurement": "EC50", "setting": "[1]", "value": "800 to 2500", "unit": "nM"}]}
{"compound": "CCC[C@H]1CC[C@H](C2CCN(c3cnc(-c4ccc(C[C@H](NC(=O)c5ccc(C(C)(C)C)s5)C(=O)NC(C(=O)O)c5ccco5)cc4)nc3)CC2)CC1", "note": "(some centres unmarked) [Compound 1454]", "values": [{"measurement": "EC50", "setting": "[2]", "value": "< 800", "unit": "nM"}]}
{"compound": "C[C@@H](NC(=O)[C@H](Cc1ccc(-c2ncc(-c3ccc(-c4ccc(OC(F)(F)F)cc4)cc3F)cn2)cc1)NC(=O)c1ccc(C(C)(C)C)s1)C(=O)O", "note": "[Compound 1171]", "values": [{"measurement": "EC50", "setting": "[1]", "value": "< 800", "unit": "nM"}]}
